Assay [1] deals with CDK9/CycT1 (Homo sapiens (Human), UniProt P50750). Nature of the assay: CDK9/CycT1 high ATP kinase assay (TR-FRET, 2 mM ATP). It is filed as biochemical. The settings on record: Method 1b. The procedure: 1b. CDK9/CycT1 High ATP Kinase Assay
CDK9/CycT1-inhibitory activity of compounds of the present invention at a high ATP concentration after preincubation of enzyme and test compounds was quantified employing the CDK9/CycT1 TR-FRET assay as described in the following paragraphs.
Recombinant full-length His-tagged human CDK9 and CycT1, expressed in insect cells and purified by Ni-NTA affinity chromatography, were purchase from Invitrogen (Cat. No PV4131). As substrate for the kinase reaction biotinylated peptide biotin-Ttds-YISPLKSPYKISEG (C-terminus in amid form) was used which can be purchased e.g. form the company JERINI peptide technologies (Berlin, Germany).
For the assay 50 nl of a 100 fold concentrated solution of the test compound in DMSO was pipetted into a black low volume 384 well microtiter plate (Greiner Bio-One, Frickenhausen, Germany), 2 μl of a solution of CDK9/CycT1 in aqueous assay buffer [50 mM Tris/HCl pH 8.0, 10 mM MgCl2, 1.0 mM dithiothreitol, 0.1 mM sodium ortho-vanadate, 0.01% (v/v) Nonidet-P40 (Sigma)] were added and the mixture was incubated for 15 min at 22° C. to allow pre-binding of the test compounds to the enzyme before the start of the kinase reaction. Then the kinase reaction was started by the addition of 3 μl of a solution of adenosine-tri-phosphate (ATP, 3.3 mM=>final conc. in the 5 μl assay volume is 2 mM) and substrate (1.67 μM=>final conc. in the 5 μl assay volume is 1 μM) in assay buffer and the resulting mixture was incubated for a reaction time of 25 min at 22° C. The concentration of CDK9/CycT1 was adjusted depending of the activity of the enzyme lot and was chosen appropriate to have the assay in the linear range, typical concentrations were in the range of 0.5 μg/mL. The reaction was stopped by the addition of 5 μl of a solution of TR-FRET detection reagents (0.2 μM streptavidine-XL665 [Cisbio Bioassays, Codolet, France] and 1 nM anti-RB(pSer807/pSer811)-antibody from BD Pharmingen [#558389] and 1.2 nM LANCE EU-W1024 labeled anti-mouse IgG antibody [Perkin-Elmer, product no. AD0077]) in an aqueous EDTA-solution (100 mM EDTA, 0.2% (w/v) bovine serum albumin in 100 mM HEPES/NaOH pH 7.0).
The resulting mixture was incubated 1 h at 22° C. to allow the formation of complex between the phosphorylated biotinylated peptide and the detection reagents. Subsequently the amount of phosphorylated substrate was evaluated by measurement of the resonance energy transfer from the Eu-chelate to the streptavidine-XL. Therefore, the fluorescence emissions at 620 nm and 665 nm after excitation at 350 nm was measured in a HTRF reader, e.g. a Rubystar (BMG Labtechnologies, Offenburg, Germany) or a Viewlux (Perkin-Elmer). The ratio of the emissions at 665 nm and at […] was taken as the measure for the amount of phosphorylated substrate. The data were normalised (enzyme reaction without inhibitor=0% inhibition, all other assay components but no enzyme=100% inhibition).
Background: TR-FRET usually uses a lanthanide donor and a delayed reading to cut background.

Assay [2] has as its system HeLa-MaTu-ADR, multidrug-resistant human cervical carcinoma cells. The assay can be described thus: Proliferation assay, HeLa-MaTu-ADR (crystal violet). It is filed as cell-based. Conditions: 96 h, 4 days, read-out: Inhibition of HeLa-MaTu-ADR cell proliferation IC50. The procedure:
(§1) Cultivated tumour cells (HeLa, human cervical tumour cells, ATCC CCL-2; NCI-H460, human non-small cell lung carcinoma cells, ATCC HTB-177; A2780, human ovarian carcinoma cells, ECACC #93112519; DU 145, hormone-independent human prostate carcinoma cells, ATCC HTB-81; HeLa-MaTu-ADR, multidrug-resistant human cervical carcinoma cells, EPO-GmbH Berlin; Caco-2, human colorectal carcinoma cells, ATCC HTB-37; B16F10, mouse melanoma cells, ATCC CRL-6475) were plated at a density of 5,000 cells/well (DU145, HeLa-MaTu-ADR), 3,000 cells/well (NCI-H460, HeLa), 2,500 cells/well (A2780), 1,500 cells/well (Caco-2), or 1,000 cells/well (B16F10) in a 96-well multititer plate in 200 μL of their respective growth medium supplemented 10% fetal calf serum. […] Cell proliferation was determined by staining the cells with crystal violet: the cells were fixed by adding 20 μl/measuring point of an 11% glutaric aldehyde solution for 15 minutes at room temperature. […] The extinction was determined by photometry at a wavelength of 595 nm. The change of cell number, in percent, was calculated by normalization of the measured values to the extinction values of the zero-point plate (=0%) and the extinction of the untreated (0 μm) cells (=100%). […]

In assay [3] the test system is NCI-H460, human non-small cell lung carcinoma cells. The assay can be described thus: Proliferation assay, NCI-H460 (crystal violet). Format: cell-based. The settings on record: 96 h, NCI-H460, 4 days, read-out: Inhibition of NCI-H460 cell proliferation IC50. The procedure:
as §1

The subject of assay [4] is DU 145, hormone-independent human prostate carcinoma cells. The assay can be described thus: Proliferation assay, DU145 (crystal violet). Format: cell-based. Conditions: DU-145, 96 h, DU145, 4 days, read-out: Inhibition of DU145 cell proliferation IC50. The procedure: as §1
Assay [5] concerns Caco-2, human colorectal carcinoma cells. The assay can be described thus: Proliferation assay, Caco-2 (crystal violet). Format: cell-based. Conditions: 96 h, Caco-2, 4 days, read-out: Inhibition of Caco-2 cell proliferation IC50. The procedure:
as §1

The subject of assay [6] is B16F10, mouse melanoma cells. The assay can be described thus: Proliferation assay, B16F10 (crystal violet). It is filed as cell-based. Conditions: B16-F10, 96 h, B16F10, 4 days, read-out: Inhibition of B16F10 cell proliferation IC50. The procedure: as §1
Assay [7] relates to A2780, human ovarian carcinoma cells. Nature of the assay: Proliferation assay, A2780 (crystal violet). It is filed as cell-based. The settings on record: 96 h, A2780, 4 days, read-out: Inhibition of A2780 cell proliferation IC50. The procedure:
as §1

Data on five compounds can be found in patent US9670161B2, “5-fluoro-N-(pyridin-2-yl)pyridin-2-amine derivatives containing a sulfone group” (BAYER PHARMA AKTIENGESELLSCHAFT, priority 2012, dated 2017).

Chain of CDK9/CycT1 (P50750 whole entry): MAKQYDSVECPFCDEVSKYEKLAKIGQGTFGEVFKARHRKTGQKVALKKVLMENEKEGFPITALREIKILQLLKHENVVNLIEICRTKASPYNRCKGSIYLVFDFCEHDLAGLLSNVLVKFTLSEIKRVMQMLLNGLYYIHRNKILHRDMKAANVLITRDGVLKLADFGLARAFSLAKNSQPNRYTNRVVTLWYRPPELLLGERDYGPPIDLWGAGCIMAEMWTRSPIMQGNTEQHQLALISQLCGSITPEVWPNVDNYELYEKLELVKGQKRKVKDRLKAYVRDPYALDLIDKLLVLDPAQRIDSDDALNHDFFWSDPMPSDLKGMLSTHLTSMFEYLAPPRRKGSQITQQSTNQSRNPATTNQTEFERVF
Chain of CDK9/CycT1 (O60563 whole entry partner): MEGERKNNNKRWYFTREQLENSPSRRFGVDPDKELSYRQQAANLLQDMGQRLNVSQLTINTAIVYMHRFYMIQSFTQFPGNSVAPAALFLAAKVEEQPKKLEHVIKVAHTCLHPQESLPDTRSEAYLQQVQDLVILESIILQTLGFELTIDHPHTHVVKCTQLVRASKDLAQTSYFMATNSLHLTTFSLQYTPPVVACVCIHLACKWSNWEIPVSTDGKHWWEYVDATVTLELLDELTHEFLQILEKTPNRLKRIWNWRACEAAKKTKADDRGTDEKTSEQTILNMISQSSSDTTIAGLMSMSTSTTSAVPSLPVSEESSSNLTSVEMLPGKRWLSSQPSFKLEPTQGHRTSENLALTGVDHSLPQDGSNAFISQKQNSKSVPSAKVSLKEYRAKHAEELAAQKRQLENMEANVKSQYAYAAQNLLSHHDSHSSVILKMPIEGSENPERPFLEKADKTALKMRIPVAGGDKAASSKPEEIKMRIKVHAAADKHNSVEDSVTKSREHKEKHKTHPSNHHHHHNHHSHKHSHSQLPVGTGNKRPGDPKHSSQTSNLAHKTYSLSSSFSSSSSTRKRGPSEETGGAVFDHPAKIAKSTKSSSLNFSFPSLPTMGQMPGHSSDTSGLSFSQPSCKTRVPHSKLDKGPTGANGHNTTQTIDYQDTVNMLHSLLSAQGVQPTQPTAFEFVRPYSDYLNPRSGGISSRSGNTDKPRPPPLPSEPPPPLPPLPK

`COc1cc(F)ccc1-c1cc(Nc2cc(CS(C)(=O)=O)cc(C(F)(F)F)n2)ncc1F` [Example 4, 5-Fluoro-4-(4-fluoro-2-methoxyphenyl)-N-{4-[(methylsulfonyl)methyl]-6-(trifluoromethyl)pyridin-2-yl}pyridin-2-amine]: the IC50 in assay [1] stood at 3 nM.
As to `COc1cc(F)ccc1-c1cc(Nc2cc(CS(C)(=O)=O)ccn2)ncc1F` [Example 1, 5-Fluoro-4-(4-fluoro-2-methoxyphenyl)-N-{4-[(methylsulfonyl)methyl]pyridin-2-yl}pyridin-2-amine], the IC50 in assay [1] worked out at 2 nM; in assay [2], 37 nM; in assay [3], 62 nM; in assay [4], 56 nM; in assay [5], 70 nM; in assay [6], 100 nM. Moreover, the IC50 in assay [7] is 28 nM.
`COc1cc(F)ccc1-c1cc(Nc2cc(CS(C)(=O)=O)cc(C)n2)ncc1F` [Example 2, 5-Fluoro-4-(4-fluoro-2-methoxyphenyl)-N-{6-methyl-4-[(methylsulfonyl)methyl]pyridin-2-yl}pyridin-2-amine]: the IC50 in assay [1] amounted to 2 nM; in assay [2], 59 nM; in assay [3], 94 nM; in assay [4], 84 nM; in assay [5], 37 nM; in assay [6], 100 nM.
On to `COc1cc(F)ccc1-c1cc(Nc2cc(CS(C)(=O)=O)cc(C(F)F)n2)ncc1F` [Example 5, N-{6-(Difluoromethyl)-4-[(methylsulfonyl)methyl]pyridin-2-yl}-5-fluoro-4-(4-fluoro-2-methoxyphenyl)pyridin-2-amine], for which the IC50 in assay [1] is 1 nM.
On the same count and under the same terms, the figure for `COc1cc(F)ccc1-c1cc(Nc2cc(CS(C)(=O)=O)cc(F)n2)ncc1F` [Example 3, 5-Fluoro-4-(4-fluoro-2-methoxyphenyl)-N-{6-fluoro-4-[(methylsulfonyl)methyl]pyridin-2-yl}pyridin-2-amine] is 2 nM.
